Measured values: patent publication US6489475B2, “Method of producing heterocyclic derivatives” (Sankyo Company, Limited, priority 1994, dated 2002)
Marks after values point to notes of the source that are not given here.

Tests used:
ACAT = ACAT inhibitory activity (small intestine mucosa microsomes, [1-14C]-oleoyl CoA, cholesteryl oleate production); type: biochemical, rabbit; conditions: concentration 10^-5M; inhibition of cholesteryl oleate production vs control
Experimental: A high cholesterol feed [a feed added with cholesterol (1%), Clea Japan, Inc.] was fed to male Japanese white rabbits weighing 2-2.5 kg at 100 g per day and the rabbits were bred for 4 weeks. The rabbits were killed by bleeding under anesthesia and small intestine was removed. The mucous membrane of small intestine was peeled, collected and homogenated. The homogenate was centrifuged at 4° C. and 10,000 rpm for 15 min. The obtained supernatant was further centrifuged at 4° C. and 41,000 rpm for 30 minutes to give microsomal fractions. Using this microsomal suspension as an enzyme sample, dimethyl sulfoxide (DMSO, 5 μl) or a test compound dissolved in DMSO (test compound solution, 5 μl), and a reaction substrate [1-^14C]-oleoyl CoA were added to a reaction buffer. After incubation at 37° C. for 5 minutes, a chloroform-methanol mixture was added to stop the reaction. Water was added thereto and mixed, and chloroform layer was separated. The solvent was evaporated to dryness, and the residue was dissolved in hexane. The mixture was subjected to thin layer chromatography using a silica gel plate. The spots of cholesteryl oleate on the silica gel plate were scraped, and quantitatively assayed on a liquid scintillation counter. The ACAT inhibitory activity of the test compound was expressed as a proportion (%) of inhibition of cholesteryl oleate, namely, the proportion of inhibition of cholesteryl oleate production as compared to control.

LDL = LDL peroxidation inhibitory effect (copper sulfate, malondialdehyde by thiobarbituric acid method); type: biochemical, rabbit; conditions: concentration 10^-5M; 37°C, 24 hours; malondialdehyde production inhibitory ratio
Experimental: LDL Peroxidation Inhibitory Effect
Male Japanese white rabbits weighing 2-2.5 kg were bred on 100 g per day of a high cholesterol feed [added with cholesterol (1%), Clea Japan, Inc.] for 4 weeks. The blood was taken from carotid and plasma was obtained. Then, LDL was fractionated from the plasma by ultracentrifugation, dialyzed for one day and preserved at 4° C. LDL (400 μg) and aqueous copper sulfate solution (final concentration 5 μM) were added to bufferized Ham F-10 medium (2 ml, GIBCO, USA). DMSO or a solution (20 μl) of test compound dissolved in DMSO was added and the mixture was incubated at 37° C. for 24 hours. After the completion of the incubation, LDL peroxide in medium was allowed to develop color by thiobarbituric acid method and assayed as malondialdehyde. The activity of the test compound was expressed as malondialdehyde production inhibitory ratio (%), namely, the proportion of inhibition of production of malondialdehyde as compared to control.

plasma = assay: Plasma lipoperoxidation inhibitory effect (copper sulfate, malondialdehyde by thiobarbituric acid method); type: biochemical, rabbit; conditions: concentration 10^-5M; 37°C, 3 hours; malondialdehyde production inhibitory ratio
Experimental: Plasma Lipoperoxidation Inhibitory Effect
The blood was taken from male Japanese white rabbits weighing 2-2.5 kg under anesthesia and heparinized plasma was separated by a conventional method. To the plasma (2.0 ml) was added DMSO or a solution (20 μl, final concentration 10^−5 M) of test compound dissolved in DMSO, and aqueous copper sulfate solution (final concentration 5 mM) was added immediately thereafter. The mixture was incubated at 37° C. for 3 hours. After the completion of the incubation, 20% trichloroacetic acid was added to stop the reaction. Then, the mixture was centrifuged at 4° C., 4,500 rpm for 15 minutes. The lipoperoxide in the supernatant thus obtained was assayed as malondialdehyde upon color development by thiobarbituric acid method. The activity of the test compound was expressed as malondialdehyde production inhibitory ratio (%), namely, the proportion of inhibition of production of malondialdehyde as compared to control.

Male Wister rats = assay: Serum total cholesterol reducing effect in rats on high cholesterol feed; type: in vivo; conditions: oral, once a day for 3 days, rat
Experimental: Serum Total Cholesterol Reducing Effect
Male Wister rats weighing 180-200 g were bred under free access to a high cholesterol feed [added with cholesterol (1%), cholic acid (0.5%) and coconut oil (10%), Clea Japan, Inc.] for 3 days, during which period a test compound (10-100 mg/kg) suspended in 5% gum arabic solution was forcibly administered once a day orally for 3 days. Only 5% gum arabic solution was administered to control animals. After final administration, the test animals were fasted for 5 hours and the blood was taken. The serum total cholesterol level was determined using a commercially available assay kit (cholesterol-E-Test Wako, Wako Pure Chemical Industries, Ltd.). The activity of the test compound was expressed as a proportion (%) of reduction of serum total cholesterol level, namely, the proportion of reduction of serum total cholesterol as compared to control.

SMILES | Result of Exp. Ex. 1: ACAT inhibition (ACAT) | Result of Exp. Ex. 3: LDL peroxidation inhibition (LDL) | Result of Exp. Ex. 4: plasma lipoperoxidation inhibition (plasma) | Result of Exp. Ex. 2: reduction of serum total cholesterol (Male Wister rats; dose 30 mg/kg/day) | Result of Exp. Ex. 2: reduction of serum total cholesterol (Male Wister rats; dose 10 mg/kg/day)
CCCCCCN1CCc2c(C)cc(C)c(NC(=O)C(C)(C)COCC)c21 [Example 34] | 91.0 ** % | 82.9% | 89.8% | 50.2 ** % | 
CC(C)(Sc1cc(C(C)(C)C)c(O)c(C(C)(C)C)c1)Sc1cc(C(C)(C)C)c(O)c(C(C)(C)C)c1 [Probucol, 4,4′-isopropylidenedithiobis(2,6-di-t-butylphenol), reference compound] | 3.4 ** % | 89.4% | 87.5% |  | 7.3 * %
